PubChem BioAssay (NCI)
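Tested at 5 concentrations; 48 h exposure; 96-well plates; endpoints linearly interpolated, else capped at highest concentration. TGI: total growth inhibition.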

What was measured:
Assay in all cases: NCI anticancer screen, dose series, 48 h
[1] = tested on: U251 CNS
[2] = tested on: K-562 leukemia
[3] = tested on: UACC-257 melanoma
[4] = tested on: HT29 colon
[5] = tested on: OVCAR-8 ovarian
[6] = tested on: UACC-62 melanoma
[7] = tested on: SK-MEL-5 melanoma
[8] = tested on: ACHN renal
[9] = tested on: HCT-15 colon
[10] = tested on: NCI-H226 lung
[11] = tested on: SK-OV-3 ovarian
[12] = tested on: MCF7 breast
[13] = tested on: RPMI-8226 leukemia
[14] = tested on: T-47D breast
[15] = tested on: OVCAR-5 ovarian
[16] = tested on: PC-3 prostate
[17] = tested on: SW-620 colon
[18] = tested on: HOP-62 NSCLC
[19] = tested on: SK-MEL-28 melanoma
[20] = tested on: HS 578T breast
[21] = tested on: EKVX NSCLC
[22] = tested on: UO-31 renal
[23] = tested on: HOP-92 NSCLC
[24] = tested on: TK-10 renal
[25] = tested on: SF-295 CNS
[26] = tested on: MDA-N
[27] = tested on: MDA-MB-435
[28] = tested on: MDA-MB-231 breast
[29] = tested on: NCI-H23 lung
[30] = tested on: SK-MEL-2 melanoma
[31] = tested on: HL-60(TB) leukemia
[32] = tested on: CAKI-1 renal
[33] = tested on: NCI-H460 lung
[34] = tested on: OVCAR-3 ovarian
[35] = tested on: RXF 393 renal
[36] = tested on: SR leukemia
[37] = tested on: A498 renal
[38] = tested on: COLO 205 colon
[39] = tested on: IGROV1 ovarian
[40] = tested on: A549 NSCLC
[41] = tested on: SNB-19 CNS
[42] = tested on: SF-268 CNS
[43] = tested on: OVCAR-4 ovarian
[44] = tested on: LOX IMVI melanoma
[45] = tested on: SF-539 CNS
[46] = tested on: MOLT-4 leukemia
[47] = tested on: KM12 colon
[48] = tested on: NCI/ADR-RES ovarian
[49] = tested on: DU-145 prostate
[50] = tested on: M14 melanoma
[51] = tested on: SNB-75 CNS
[52] = tested on: HCC-2998 colon
[53] = tested on: CCRF-CEM leukemia

With Cc1ccc(N=N/C(=N\NC(=O)c2ccc(C)cc2)c2ccc(N(CCC#N)CCC#N)cc2C)cc1 as the compound, how does the TGI [1] read?
The TGI was greater than 100 µM.

And the TGI [2]?
The TGI was greater than 100 µM.

And the TGI [3]?
Its TGI is greater than 100 µM.

And the TGI [4]?
Its TGI is greater than 100 µM.

What about the TGI [5] of the same compound?
Its TGI is greater than 100 µM.

What about the TGI [6] of the same compound?
Its TGI is 56.7 µM.

What about the TGI [7] of the same compound?
The TGI was greater than 100 µM.

What about the TGI [8] of the same compound?
The TGI was greater than 100 µM.

And the TGI [9]?
The TGI was greater than 100 µM.

And the TGI [10]?
The TGI was greater than 100 µM.

And the TGI [11]?
Its TGI is greater than 100 µM.

What about the TGI [12] of the same compound?
The TGI was greater than 100 µM.

And the TGI [13]?
Its TGI is greater than 100 µM.

And the TGI [14]?
Its TGI is greater than 100 µM.

And the TGI [15]?
The TGI was greater than 100 µM.

What about the TGI [16] of the same compound?
The TGI was greater than 100 µM.

And the TGI [17]?
Its TGI is greater than 100 µM.

What about the TGI [18] of the same compound?
The TGI was greater than 100 µM.

And the TGI [19]?
Its TGI is 52.5 µM.

What about the TGI [20] of the same compound?
Its TGI is 70 µM.

And the TGI [21]?
The TGI was greater than 100 µM.

What about the TGI [22] of the same compound?
Its TGI is greater than 100 µM.

And the TGI [23]?
The TGI was greater than 100 µM.

And the TGI [24]?
Its TGI is greater than 100 µM.

What about the TGI [25] of the same compound?
Its TGI is greater than 100 µM.

What about the TGI [26] of the same compound?
Its TGI is greater than 100 µM.

And the TGI [27]?
Its TGI is 65.8 µM.

And the TGI [28]?
The TGI was greater than 100 µM.

And the TGI [29]?
Its TGI is greater than 100 µM.

What about the TGI [30] of the same compound?
The TGI was 51.6 µM.

And the TGI [31]?
The TGI was greater than 100 µM.

What about the TGI [32] of the same compound?
Its TGI is greater than 100 µM.

And the TGI [33]?
The TGI was greater than 100 µM.

What about the TGI [34] of the same compound?
The TGI was greater than 100 µM.

What about the TGI [35] of the same compound?
Its TGI is greater than 100 µM.

And the TGI [36]?
Its TGI is greater than 100 µM.

What about the TGI [37] of the same compound?
The TGI was greater than 100 µM.

And the TGI [38]?
Its TGI is greater than 100 µM.

What about the TGI [39] of the same compound?
Its TGI is 60.6 µM.

And the TGI [40]?
Its TGI is greater than 100 µM.

What about the TGI [41] of the same compound?
Its TGI is greater than 100 µM.

And the TGI [42]?
Its TGI is greater than 100 µM.

And the TGI [43]?
Its TGI is greater than 100 µM.

What about the TGI [44] of the same compound?
Its TGI is greater than 100 µM.

And the TGI [45]?
Its TGI is 45.1 µM.

And the TGI [46]?
The TGI was greater than 100 µM.

What about the TGI [47] of the same compound?
Its TGI is 30.3 µM.

And the TGI [48]?
Its TGI is greater than 100 µM.

And the TGI [49]?
The TGI was greater than 100 µM.

And the TGI [50]?
The TGI was 91.8 µM.

What about the TGI [51] of the same compound?
Its TGI is greater than 100 µM.

What about the TGI [52] of the same compound?
The TGI was greater than 100 µM.

What about the TGI [53] of the same compound?
Its TGI is greater than 100 µM.
